Experiment [1] concerns P. aeruginosa. The following applies: P. aeruginosa ATCC 27853; quality control range printed beside broth microdilution MIC of parent strain; cited from earlier work.
Experiment [2] relates to E. coli (AID#172 & ATCC 25922). Put plainly: microbe, parasite or virus in culture. In kind it is cell-based, Escherichia coli. On the procedure:
The test media was cation-adjusted MHB (CAMHB, Becton Dickinson) supplemented with 2% Noble Agar (Becton Dickinson) and additionally for AA139 with 0.1% BSA. The agar dilution MIC values were determined as recommended by Clinical and Laboratory Standards Institute (CLSI)[47]. […] The inoculum for the spontaneous mutation plates targeted 10^9 to 10^10 colony-forming units (CFU) per plate. The viable count of each suspension was determined by plating serial ten-fold dilutions onto MHB/NA in duplicate. In addition, agar plates without drug were inoculated as positive controls. Plates were inspected for growth at both 24 and 48 h. Colony counts were determined manually. Using the counts at 48 h, the spontaneous mutation frequency was calculated using the following equation: (average number of colonies from duplicate selection plates)/(total number of cells inoculated onto each plate). If there were no colonies on the antibiotic selection plates, the spontaneous mutation frequency was reported as less than the frequency observed with one colony to indicate that the spontaneous mutation frequency was less than the limit of detection (one CFU).

A further experiment relates to K. pneumoniae. Nature of the experiment: microbe, parasite or virus in culture. In kind it is cell-based, Klebsiella pneumoniae.
Experiment [3] relates to P. aeruginosa. Nature of the experiment: microbe, parasite or virus in culture. It counts as cell-based, Pseudomonas aeruginosa. The arrangement: MIC, Survanta (5%) replicates: unit not given beside the values.
Experiment [4] relates to E. coli ATCC 25922. Nature of the experiment: microbe, parasite or virus in culture. It counts as cell-based, Escherichia coli. The arrangement: MIC, Survanta (5%) replicates: unit not given beside the values. The note with it: for MIC, Survanta (5%) replicates: BMD with 5% Survanta lung surfactant. The method in brief: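 Broth microdilution MIC in Mueller Hinton broth, 12-point 2-fold series from 128 or 64 down to 0.06 or 0.03 μg mL^−1, 5 × 10^5 CFU mL^−1 inoculum. Read visually after 18-20 h at 37 °C without shaking; n ≥ 6. Additional tests in CAMHB, and in MHB with 1% agarose.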

In experiment [5] the test system is E. coli ATCC 25922. In kind it is cell-based, Escherichia coli.
[6] abbreviates: K. pneumoniae ATCC 700603 ESBL, OXA-2/SHV-18, n=2 to 6, mode or median.
Where [7] appears, read: P. aeruginosa ATCC 27853 control strain, n=2 to 6, mode or median.
Setting [8] is: P. aeruginosa FADDI-070 MDR, PmxR, n=2 to 6, mode or median.

We go through three molecules from article PMC7311426, “An amphipathic peptide with antibiotic activity against multidrug-resistant Gram-negative bacteria” (Nature Communications, 2020).

Like-named read-outs stand apart in the source and are kept apart here.

As for `C[C@H]1[C@H](NC(=O)/C(=N\OC(C)(C)C(=O)O)c2csc(N)n2)C(=O)N1S(=O)(=O)O` [AZT], in the experiment with P. aeruginosa [1], the “MIC Quality control range” value was 2 to 8 µg/mL.

Take `NC[C@H]1O[C@H](O[C@H]2[C@H](O)[C@@H](O[C@H]3O[C@H](CO)[C@@H](O)[C@H](N)[C@H]3O)[C@H](N)C[C@@H]2N)[C@H](N)C[C@@H]1O` [TOB]: the “MIC Quality control range” value with P. aeruginosa [1] is 0.25 to 1 µg/mL.

Take colistin: the “Noble agar dilution MIC” value in experiment [2] (E. coli AID#172) and in experiment [2] (E. coli ATCC 25922) was 1 µg/mL throughout. For the same molecule, the “Spontaneous frequency of resistance at 4× MIC” value in experiment [2] (E. coli AID#172, counts at 48 h, >TC = colonies too numerous to count) was “>TC”. Besides, in experiment [2] (E. coli ATCC 25922), the “Agar (Noble) Dilution MIC” value came to 1 µg/mL. For the same molecule, the “MIC, Serum (50%) replicates” value against K. pneumoniae (K. pneumoniae ATCC 13883, type strain, BMD with 50% human serum, replicate 1) is listed as at most 0.03; against K. pneumoniae (K. pneumoniae ATCC 13883, type strain, BMD with 50% human serum, replicate 2), at most 0.03; in the experiment with K. pneumoniae (K. pneumoniae ATCC 700603, ESBL, OXA-2/SHV-18, BMD with 50% human serum, replicate 1), 0.25; in the experiment on K. pneumoniae (K. pneumoniae ATCC 700603, ESBL, OXA-2/SHV-18, BMD with 50% human serum, replicate 2), 0.25; against K. pneumoniae (K. pneumoniae ATCC 700603, ESBL, OXA-2/SHV-18, BMD with 50% human serum, replicate 3) it was 0.031; against K. pneumoniae (K. pneumoniae ATCC 700603, ESBL, OXA-2/SHV-18, BMD with 50% human serum, replicate 4), 0.063. Moreover, the “MIC, Serum (50%) replicates” value was 0.031 against K. pneumoniae (K. pneumoniae ATCC 700603, ESBL, OXA-2/SHV-18, BMD with 50% human serum, replicate 5); at most 0.031 against K. pneumoniae (K. pneumoniae ATCC 700603, ESBL, OXA-2/SHV-18, BMD with 50% human serum, replicate 6); 0.5 against P. aeruginosa [3] (P. aeruginosa ATCC 27853, control strain, BMD with 50% human serum, replicate 1); 0.5 in the experiment on P. aeruginosa [3] (P. aeruginosa ATCC 27853, control strain, BMD with 50% human serum, replicate 2); 0.25 in the experiment with P. aeruginosa [3] (P. aeruginosa ATCC 27853, control strain, BMD with 50% human serum, replicate 3); 0.25 with P. aeruginosa [3] (P. aeruginosa ATCC 27853, control strain, BMD with 50% human serum, replicate 4). The “MIC, Serum (50%) replicates” value in the experiment on P. aeruginosa [3] (P. aeruginosa ATCC 27853, control strain, BMD with 50% human serum, replicate 5) is 0.125; against P. aeruginosa [3] (P. aeruginosa ATCC 27853, control strain, BMD with 50% human serum, replicate 6) it was 0.125; in the experiment with P. aeruginosa [3] (P. aeruginosa FADDI-070, MDR, PmxR, BMD with 50% human serum, replicate 1), 0.25; with P. aeruginosa [3] (P. aeruginosa FADDI-070, MDR, PmxR, BMD with 50% human serum, replicate 2), 0.125; in the experiment with E. coli ATCC 25922 [4] (E. coli ATCC 25922, FDA control strain, BMD with 50% human serum, replicate 1) it was at most 0.03; with E. coli ATCC 25922 [4] (E. coli ATCC 25922, FDA control strain, BMD with 50% human serum, replicate 2), at most 0.03. The “MIC, Serum (50%) replicates” value is recorded as 0.125 against E. coli ATCC 25922 [4] (E. coli ATCC 25922, FDA control strain, BMD with 50% human serum, replicate 3); 0.063 in the experiment with E. coli ATCC 25922 [4] (E. coli ATCC 25922, FDA control strain, BMD with 50% human serum, replicate 4); at most 0.03 against E. coli ATCC 25922 [4] (E. coli ATCC 25922, FDA control strain, BMD with 50% human serum, replicate 5); at most 0.03 in the experiment on E. coli ATCC 25922 [4] (E. coli ATCC 25922, FDA control strain, BMD with 50% human serum, replicate 6). Further, the “MIC, Serum (50%)” value against K. pneumoniae (K. pneumoniae ATCC 13883, type strain, BMD with 50% human serum, where n=2 differs the higher value is recorded) is at most 0.03; with K. pneumoniae (K. pneumoniae ATCC 13883 type strain, n=2 to 6, mode or median) it was at most 0.03 µg/mL; with K. pneumoniae (K. pneumoniae ATCC 700603, ESBL, OXA-2/SHV-18, BMD with 50% human serum, mode, or median where no mode, n=4 to 6, where n=2 differs the higher value), 0.125; in the experiment with K. pneumoniae (setting [6]), 0.125 µg/mL; against P. aeruginosa [3] (P. aeruginosa ATCC 27853, control strain, BMD with 50% human serum, mode, or median where no mode, n=4 to 6, where n=2 differs the higher value) it was 0.25; against P. aeruginosa [3] (setting [7]), 0.25 µg/mL. Besides, the “MIC, Serum (50%)” value in the experiment with P. aeruginosa [3] (P. aeruginosa FADDI-070, MDR, PmxR, BMD with 50% human serum, where n=2 differs the higher value is recorded) is 0.25; in the experiment with P. aeruginosa [3] (setting [8]) it was 0.25 µg/mL; in the experiment with E. coli ATCC 25922 [4] (E. coli ATCC 25922, FDA control strain, BMD with 50% human serum, mode, or median where no mode, n=4 to 6, where n=2 differs the higher value), at most 0.03; in the experiment with E. coli ATCC 25922 [4] (E. coli ATCC 25922, MHB + 50% (v/v) human serum, n=2 to 6, mode or median), at most 0.03 µg/mL. The “MIC, Survanta (5%)” value in the experiment with K. pneumoniae (K. pneumoniae ATCC 700603, ESBL, OXA-2/SHV-18, BMD with 5% Survanta lung surfactant, mode, or median where no mode, n=4 to 6, where n=2 differs the higher value) stood at 0.125; against K. pneumoniae (setting [6]), 0.125 µg/mL; in the experiment with K. pneumoniae (K. pneumoniae BAA-2146, NDM-1, BMD with 5% Survanta lung surfactant, mode, or median where no mode, n=4 to 6, where n=2 differs the higher value) it was 0.06; in the experiment on K. pneumoniae (K. pneumoniae BAA-2146 NDM-1, n=2 to 6, mode or median) it was 0.06 µg/mL; against P. aeruginosa [3] (P. aeruginosa ATCC 27853, control strain, BMD with 5% Survanta lung surfactant, mode, or median where no mode, n=4 to 6, where n=2 differs the higher value) it was 0.25; in the experiment with P. aeruginosa [3] (setting [7]) it was 0.25 µg/mL. In addition, the “MIC, Survanta (5%)” value in the experiment with P. aeruginosa [3] (P. aeruginosa FADDI-070, MDR, PmxR, BMD with 5% Survanta lung surfactant, mode, or median where no mode, n=4 to 6, where n=2 differs the higher value) is at least 64; with P. aeruginosa [3] (setting [8]) it was at least 64 µg/mL; against E. coli ATCC 25922 [5] (E. coli ATCC 25922, FDA control strain, BMD with 5% Survanta lung surfactant, mode, or median where no mode, n=4 to 6, where n=2 differs the higher value), at most 0.06; in the experiment on E. coli ATCC 25922 [5] (E. coli ATCC 25922, MHB + 5% (v/v) lung surfactant, n=2 to 6, mode or median), at most 0.06 µg/mL. For the same molecule, the “MIC, Survanta (5%) replicates” value in the experiment on K. pneumoniae (K. pneumoniae ATCC 700603, ESBL, OXA-2/SHV-18, BMD with 5% Survanta lung surfactant, replicate 1) was 1; in the experiment on K. pneumoniae (K. pneumoniae ATCC 700603, ESBL, OXA-2/SHV-18, BMD with 5% Survanta lung surfactant, replicate 2), 0.5; against K. pneumoniae (K. pneumoniae ATCC 700603, ESBL, OXA-2/SHV-18, BMD with 5% Survanta lung surfactant, replicate 3), 0.03; in the experiment with K. pneumoniae (K. pneumoniae ATCC 700603, ESBL, OXA-2/SHV-18, BMD with 5% Survanta lung surfactant, replicate 4), 0.06; in the experiment on K. pneumoniae (K. pneumoniae BAA-2146, NDM-1, BMD with 5% Survanta lung surfactant, replicate 1), 0.125; with K. pneumoniae (K. pneumoniae BAA-2146, NDM-1, BMD with 5% Survanta lung surfactant, replicate 2), 0.125. For the same molecule, the “MIC, Survanta (5%) replicates” value against K. pneumoniae (K. pneumoniae BAA-2146, NDM-1, BMD with 5% Survanta lung surfactant, replicate 3) is recorded as at most 0.03; against K. pneumoniae (K. pneumoniae BAA-2146, NDM-1, BMD with 5% Survanta lung surfactant, replicate 4) it was at most 0.03; with P. aeruginosa [3] (P. aeruginosa ATCC 27853, control strain, BMD with 5% Survanta lung surfactant, replicate 1), 0.5; against P. aeruginosa [3] (P. aeruginosa ATCC 27853, control strain, BMD with 5% Survanta lung surfactant, replicate 2) it was 0.5; against P. aeruginosa [3] (P. aeruginosa ATCC 27853, control strain, BMD with 5% Survanta lung surfactant, replicate 3), 0.125; against P. aeruginosa [3] (P. aeruginosa ATCC 27853, control strain, BMD with 5% Survanta lung surfactant, replicate 4), 0.125. The “MIC, Survanta (5%) replicates” value in the experiment on P. aeruginosa [3] (P. aeruginosa FADDI-070, MDR, PmxR, BMD with 5% Survanta lung surfactant, replicate 1) is recorded as 64; in the experiment with P. aeruginosa [3] (P. aeruginosa FADDI-070, MDR, PmxR, BMD with 5% Survanta lung surfactant, replicate 2), 64; against P. aeruginosa [3] (P. aeruginosa FADDI-070, MDR, PmxR, BMD with 5% Survanta lung surfactant, replicate 3), over 64; with P. aeruginosa [3] (P. aeruginosa FADDI-070, MDR, PmxR, BMD with 5% Survanta lung surfactant, replicate 4), over 64; in the experiment with E. coli ATCC 25922 [4] (E. coli ATCC 25922, FDA control strain, replicate 1) it was 0.06; against E. coli ATCC 25922 [4] (E. coli ATCC 25922, FDA control strain, replicate 2), 0.06. In addition, the “MIC, Survanta (5%) replicates” value against E. coli ATCC 25922 [4] (E. coli ATCC 25922, FDA control strain, replicate 3) is recorded as at most 0.03; against E. coli ATCC 25922 [4] (E. coli ATCC 25922, FDA control strain, replicate 4) it was at most 0.03.
